The target of assay [1] is Glutamate receptor ionotropic, NMDA 1 (Rattus norvegicus, UniProt P35439). Kind of assay: Binding affinity at glycine co-agonist site of rat NMDA receptor.
For assay [2], the species on record is Rattus norvegicus. Kind of assay: Compound was tested for its ability to inhibit kainic acid (KA)-induced inward currents in Xenopus oocytes injected with poly {A+) mRNA from rats. It counts as functional.
Assay [3] in a line: Tested for its ability to displace [3H]glutamate from NMDA receptor.
Assay [4] in a line: Displacement of [3H]CNQX from Ionotropic glutamate receptor kainate/Ionotropic glutamate receptor AMPA in rat cortical membranes. In kind it is cell membranes, Membrane. For orientation: Loss of bound radioactivity is the signal in a displacement assay; it reports binding, not function.
Assay [5] is filed under the species Rattus norvegicus. Kind of assay: Compound was tested for the ability to inhibit kainic acid (KA)-induced inward currents in Xenopus oocytes injected with poly {A+) mRNA from rats. In kind it is functional.

Take `NC(Cc1cc(I)ccc1CCP(=O)(O)O)C(=O)O` (stereo unspecified): the IC50 (usually the concentration at which inhibition is half-maximal) in assay [1] is 81 µM; in assay [3] it was above 300 µM; in assay [4], 7.3 µM. Further, in the assay filed under Rattus norvegicus [2], the Ki (in general, the equilibrium dissociation constant of an inhibitor or competing ligand from its target) is 3.5 µM.
Turning to `O=[N+]([O-])c1c(Cl)ccc2nc(O)cc(CP(=O)(O)O)c12`, the IC50 in assay [1], in assay [3] and in assay [4] was above 1000 µM in each case. Moreover, in the assay listed under Rattus norvegicus [5], the Ki was above 300 µM.
For `O=P(O)(O)Cc1cc(O)nc2cc(Cl)ccc12`, the IC50 in assay [1] amounted to 10 µM; in assay [3] it was 30 µM; in assay [4] it was 59 µM. This molecule yielded a Ki in the assay filed under Rattus norvegicus [5] of 32 µM.
Regarding `O=P(O)(O)c1cc(O)nc2cc(Cl)ccc12`, the IC50 in assay [1] is above 1000 µM; in assay [3] it was above 300 µM. Moreover, the Ki in the assay listed under Rattus norvegicus [5] was above 1000 µM.
`O=P(O)(O)CCc1cc(O)nc2cc(Cl)ccc12`: the results for the IC50 in assay [3] and in assay [4] were 600 µM and 91 µM, respectively.
On to `O=P(O)(O)Cc1cc(O)nc2cc(Cl)cc(Cl)c12`, for which the results for the IC50 in assay [1], in assay [3] and in assay [4] were 29 µM, above 100 µM and 26 µM, respectively. Further, the affinity in the assay listed under Rattus norvegicus [5], expressed as Ki, was 18.2 µM.
For `O=C(O)c1cc(CCP(=O)(O)O)c2ccc(Cl)cc2n1`, in that order: above 1000 µM, above 1000 µM, 384 µM and 450 µM.
For `O=[N+]([O-])c1c(Cl)ccc2c(CP(=O)(O)O)cc(O)nc12`, the IC50 in assay [1] was above 1000 µM; in assay [3], above 1000 µM; in assay [4], 300 µM.
Take `O=C(O)c1cc(CP(=O)(O)O)c2ccc(Cl)cc2n1`: the IC50 in assay [1] was found to be 69 µM; in assay [4], 61 µM. For the same molecule, the affinity in the assay listed under Rattus norvegicus [5], expressed as Ki, was 132 µM.
Turning to `O=P(O)(O)Cc1cc(O)nc2cc(Cl)c(Cl)cc12`, the IC50 in assay [1] is 79 µM; in assay [3], above 100 µM; in assay [4], 15 µM. Moreover, the affinity in the assay filed under Rattus norvegicus [5] corresponds to a Ki of 9.6 µM.
As for `O=P(O)(O)Cc1cc(O)nc2cc(I)ccc12`, the IC50 in assay [1] was 37 µM; in assay [3], 35 µM; in assay [4] it was 35 µM. Besides, in the assay filed under Rattus norvegicus [5], the Ki turned out to be 15.6 µM.
On to `N#Cc1cc2c(cc1[N+](=O)[O-])=NC(=O)C(=O)N=2`, for which the IC50 in assay [1] amounted to 7.9 µM; in assay [4], 0.13 µM.

The record behind these values is ChEMBL document CHEMBL1127957, “Synthesis and glutamate antagonist activity of 4-phosphonoalkylquinoline derivatives: A novel class of non-NMDA antagonist” (Bioorg Med Chem Lett, 1994).
